Values of other authors as cited in US20120289547A1, “COMBINATIONS OF PROPIVERINE AND SALIVARY STIMULANTS FOR THE TREATMENT OF OVERACTIVE BLADDER” (THERAVIDA, INC., priority 2011, published 2012).

Conditions: 5 mg of pilocarpine

SMILES: CC[C@@H]1C(=O)OC[C@@H]1Cc1cncn1C [pilocarpine]
- Time of maximum saliva output after administration: about 30 minutes
